Paper PMC10495264 (Nature Cell Biology, 2023)
“And” between values parts separate entries of the source, which are not always exact repeats. Identical values can stand only once. “Also recorded” adds a separate entry of the source.

Tests used:
yeast cells = experiment: Drop spot growth assays on rapamycin and/or cerulenin plates; format: cell-based, Saccharomyces cerevisiae; conditions: low / sublethal doses combined
Experimental: Yeast cells (Saccharomyces cerevisiae) were cultured in liquid SC medium (1.7 g l^−1 yeast nitrogen base (cat. no. 1545, CONDA), 5 g l^−1 ammonium sulfate (cat. no. 4808211, MP Biomedicals), 20 g l^−1 glucose (cat. no. 1422, AppliChem), 2 g l^−1 amino acid dropout –His (D9520, US Biological) and 35 mg l^−1 histidine (A1341, AppliChem) at 30 °C to the exponential growth phase, unless otherwise stated in the figure legends. All yeast strains used in this study are listed in Supplementary Table 1.

TORC2 = TORC2 activity in yeast cells, p-Ypk1^T662/Ypk1 immunoblot; format: cell-based, Saccharomyces cerevisiae; conditions: cerulenin 20 μM, 2 h; for p-Ypk1(T662)/Ypk1, Mean: wt Ctrl = 1, Fig. 3f
[1] = test system: total protein malonylation; experiment: Total protein malonylation (Mal-K immunoblot) in HEK293FT/HEK293T cells; format: cell-based, human
Experimental: For standard SDS–PAGE and immunoblotting experiments, cells from a well of a 12-well plate were lysed in 250 μl of ice-cold Triton lysis buffer (50 mM Tris pH 7.5, 1% Triton X-100, 150 mM NaCl, 50 mM NaF, 2 mM Na-vanadate and 0.011 g ml^−1 β-glycerophosphate) supplemented with 1×PhosSTOP phosphatase inhibitors (cat. no. 4906837001, Roche) and 1×cOmplete protease inhibitors (cat. no. 11836153001, Roche) for 10 min on ice. The samples were clarified by centrifugation (20,000g, 15 min, 4 °C) and the supernatants were boiled in 1×SDS sample buffer (5×SDS sample buffer: 350 mM Tris–HCl pH 6.8, 30% glycerol, 600 mM DTT, 12.8% SDS and 0.12% bromophenol blue). The band intensities were quantified using the ImageJ software.

HEK293T cells = experiment: OPP incorporation assay (de novo protein synthesis); format: cell-based, human; conditions: cerulenin 50 μM, 4 h
Experimental: An OPP incorporation assay was used to test for de novo protein synthesis. […] The cells were subsequently washed with DPBS, trypsinized and fixed with ice-cold 70% ethanol for 30 min at −20 °C, followed by three washes with PBS containing 0.5% Tween-20. […] The samples were run in a Guava easyCyte HT flow cytometer (Millipore) and analysed using FlowJo (v10).

Snf1 = test system: T1, Snf1; experiment: Yeast Snf1 kinase activity assay (IVK, Mig1 substrate); format: biochemical, Saccharomyces cerevisiae; set-up: key to In vitro kinase assay Snf1 / In vitro kinase assay Snf1, Mean: Mig1 phosphorylation signal density relative to 0 mM Mal-CoA (=1); conditions: for In vitro kinase assay Snf1, Mean: 0 mM = 1; for In vitro kinase assay Snf1: Replicates 1-3, 0 mM = 1 (Ext. Fig. 10e)
T1 construct: The Snf1 complex was purified from a genomically C-terminally-tagged Snf1 yeast; TAP (C, cleaved yes); made in house; host or cells: S. cerevisiae strain Snf1-TAP (Open Biosystems)
Experimental: The Snf1 complex was purified from a genomically C-terminally-tagged Snf1 yeast cultured in YPD and washed with water before filtration to induce Snf1 activation. After filtration, the cells were frozen in liquid nitrogen and cryogenically disrupted using a Precellys homogenizer in lysis buffer (50 mM Tris–HCl pH 7.5, 150 mM NaCl, 0.1% NP-40, 10% glycerol, […] and Roche EDTA-free complete protease inhibitor). The cleared lysates were incubated with IgG-coupled Dynabeads (Dynabeads M-270 Epoxy; Invitrogen, Thermo Fisher Scientific) for 2 h at 4 °C. The beads were washed five times with lysis buffer and Snf1 was eluted through cleavage with TEV protease in elution buffer (50 mM Tris–HCl pH 7.5 and 0.5 mM EDTA) and stored at −80 °C after the addition of 10% glycerol. […] To test the effect of Mal-CoA (M4263, Sigma-Aldrich), the kinase reaction was pre-incubated with 2 μl of the compound from a 15× stock solution and threefold serial dilutions for 15 min. […] Proteins were separated by SDS–PAGE and stained with SYPRO Ruby (S4942, Sigma-Aldrich) to assess loading. Substrate phosphorylation was analysed by autoradiography using a Typhoon FLA 9500 phosphorimager (GE Healthcare) and the raw density of the signals was quantified using the gel analysis tool of ImageJ.

[2] = test system: recombinant human MCD (Mal-CoA decarboxylase); conditions: read-out: apparent Michaelis constant (Km) of recombinant human MCD for Mal-CoA; cited from earlier work

Compound	combined effect of rapamycin and cerulenin on yeast growth (yeast cells)	p-Ypk1(T662)/Ypk1, Mean (TORC2; acc1S1157A yeast)	p-Ypk1(T662)/Ypk1, Mean (TORC2; wt yeast)	phosphorylation of Ypk1^T662 (TORC2 target residue) (TORC2; yeast)	Mal-K/Tubulin, Mean ([1]; ED Fig. 6c, relative to Luc)	total protein malonylation (Mal-K immunoblot) ([1]; HEK293FT cells, cerulenin treatment)	OPP assay (median fluorescence intensity of OPP Alexa Fluor 488, relative to DMSO), Mean (HEK293T cells; HEK293T, n = 6, Fig. 2l)	de novo protein synthesis (HEK293T cells)	In vitro kinase assay Snf1, Mean (Snf1; Mal-CoA 0.073 mM)	In vitro kinase assay Snf1 (Snf1; Mal-CoA 0.073 mM)	In vitro kinase assay Snf1, Mean (Snf1; Mal-CoA 0.22 mM)	In vitro kinase assay Snf1 (Snf1; Mal-CoA 0.22 mM)	In vitro kinase assay Snf1, Mean (Snf1; Mal-CoA 2 mM)	In vitro kinase assay Snf1 (Snf1; Mal-CoA 2 mM)	In vitro kinase assay Snf1, Mean (Snf1; Mal-CoA 6 mM)	In vitro kinase assay Snf1 (Snf1; Mal-CoA 6 mM)	In vitro kinase assay Snf1, Mean (Snf1; Mal-CoA […])	inhibition of Snf1 in IVK assay (Snf1; purified Snf1, His-tagged Mig1 substrate, IC50 not calculated)	Km [2]
C/C=C/C/C=C/CCC(=O)[C@H]1O[C@H]1C(N)=O [cerulenin]	additive effect	1.9821	2.002	did not inhibit	1.769	detectable increase	0.7454	decreased	–	–	–	–	–	–	–	–	–	–	–
CC(C)(COP(=O)(O)OP(=O)(O)OCC1OC(n2cnc3c(N)ncnc32)C(O)C1OP(=O)(O)O)C(O)C(=O)NCCC(=O)NCCSC(=O)CC(=O)O (stereo not shown) [Mal-CoA, malonyl-CoA]	–	–	–	–	–	–	–	–	1.243	0.8487 and 1.878 and 1.003	0.975	1.111 and 0.9316 and 0.8826	0.9179	1.023 and 1.058 and 0.6736	0.7128	0.7619 and 0.8143 and 0.5621	0.967	does not inhibit; also recorded: did not demonstrate substantial inhibitory effects	220 to 520 µM
